Results on seven compounds are retold here after patent publication US8410109B2, “Pharmaceutical compositions for the prevention and treatment of complex diseases and their delivery by insertable medical devices” (Resverlogix Corp., priority 2005, dated 2013).

A value given as a limit tells only on which side of the number the result lay.

The subject of series [1] is Human coronary artery smooth muscle cells (CASMCs). In words: Smooth muscle cell proliferation protocol. The settings on record: 50 uM, 72 hours, read-out: % Inhibition of SMC Proliferation. It is filed as cell-based.
A further series has as its system MCP-1. In words: MCP-1 ELISA on culture media of TNF-α stimulated HUVECs. The settings on record: Homo sapiens, HUVEC, 50 uM, approx. 16 hours. It is filed as cell-based.
The test system of another series is VCAM-1. Kind of series: VCAM-1 ELISA on lysates of TNF-α stimulated HUVECs. The series is classed as cell-based. The settings on record: Homo sapiens, HUVEC, 50 uM, approx. 16 hours.
For series [2] the following is noted: following oral administration (Gugler et al. 1975); cited from earlier work.

For the compound `O=c1[nH]c2ccc(-c3cc(=O)c4ccccc4o3)cc2o1` [EXAMPLE 36, 6-(4-oxo-4H-chromen-2-yl)benzo[d]oxazol-2(3H)-one], the melting point fell in the range of 347.6 to 348.2 °C. The inhibition at 50 µM in series [1] was not below 40%. The compound also had an inhibition at 50 µM with MCP-1 of less than 50%. Further, in the series on VCAM-1, the inhibition at 50 µM is not below 50%.
The corresponding values for `COc1cc(OC)c2c(=O)[nH]c(-c3cc(C)c(OCC(C)(C)O)c(C)c3)cc2c1` [EXAMPLE 42, 3-(4-(2-hydroxy-2-methylpropoxy)-3,5-dimethylphenyl)-6,8-dimethoxyisoquinolin-1(2H)-one] are 252 to 254 °C, not below 40%, less than 50% and not below 50%.
In the same order, the values of `O=c1cc(-c2ccc3nccnc3c2)oc2ncccc12` [EXAMPLE 44, 2-(quinoxalin-6-yl)-4H-pyrano[2,3-b]pyridin-4-one] are 272.3 to 274.8 °C, not below 40%, less than 50% and not below 50%.
The corresponding values for `COc1cc(OC)c2c(N)nc(-c3cc(C)c(O)c(C)c3)cc2n1` [EXAMPLE 45, 4-(5-amino-2,4-dimethoxy-1,6-naphthyridin-7-yl)-2,6-dimethylphenol] are 163.2 to 165.5 °C, not below 40%, less than 50% and not below 50%.
`O=c1[nH]c(-c2ccc(F)cc2)nc2ccc(CN3CCOCC3)cc12` [EXAMPLE 46, 2-(4-fluorophenyl)-6-(morpholinomethyl)quinazolin-4(3H)-one]: the melting point was 321.8 to 323.3 °C. In addition, in series [1], the inhibition at 50 µM is not below 40%. The compound further came in with an inhibition at 50 µM with MCP-1 of less than 50%. The inhibition at 50 µM in the series on VCAM-1 is less than 50%.
`O=c1cc(-c2ccc3[nH]ncc3c2)oc2ncc(CN3CCOCC3)cc12` [EXAMPLE 47, 2-(1H-indazol-5-yl)-6-(morpholinomethyl)-4H-pyrano[2,3-b]pyridin-4-one] registered a melting point of 293.1 to 293.2 °C. The inhibition at 50 µM in series [1] is not below 40%. Moreover, in the series on MCP-1, the inhibition at 50 µM is less than 50%. The same compound returned an inhibition at 50 µM in the series with VCAM-1 of less than 50%.
Take `O=c1c(O)c(-c2ccc(O)c(O)c2)oc2cc(O)cc(O)c12` [quercetin]: the intestinal absorption entry in series [2] is listed as “less than 1%”.
